In patent publication US9937194B1, “Compounds and methods for treating inflammatory diseases” (priority 2009, dated 2018):
In brackets after ≈: the same amount, converted by molar mass. Several values for one entry are separate records, joined by “and”; a condition that tells them apart may be missing. Equal values may be shown once. Read-outs that look alike come from different tables or passages of the source.

How the values were obtained:
A/J mice exposed to LPS = assay: Anti-inflammatory activity in vivo: A/J mice exposed to LPS intranasally; conditions: intranasal, 1 hr before LPS challenge
[1] = format: cell-based
Method: The human monocytic cell line U937 and the human type II alveolar epithelial carcinoma cell line A549 were obtained from the American Type Culture Collection (ATCC, Rockville, Md.). PBMCs from COPD patients were obtained in Brompton hospital and separated by AccuSPIN (Sigma-Aldrich, Poole, UK). Cells were cultured in complete growth medium (Sigma-Aldrich) (RPMI 1640 for U937, PBMCs, and Dulbecco's modified essential medium (DMEM) for A549) supplemented with 10% fetal bovine serum (FBS) and 1% L-glutamine at 37° C. in a humidified atmosphere with 5% CO2. U937 were differentiated into an adherent macrophage-like morphology by exposure to PMA (50 or 100 ng/ml) for 48 hrs in complete growth medium. Cell viability was assessed microscopically by trypan blue staining. Cell toxicity was determined by MTT assay as needed. This study was approved by the ethics committee of the Royal Brompton Hospitals, and all subjects gave written informed consent.

IL-8 = assay: LPS-induced IL-8 release in PMA-differentiated U937 cells (ELISA); format: cell-based, human; conditions: for IL-8 inhibition (%): test concentration not given
Method: (§1) Cytokine ELISA. LPS-induced IL-8, TNFα concentrations and TNFα-induced IL-8 concentrations are determined by sandwich ELISA according to the manufacturer's instructions (R&D Systems Europe). IC50 values for dexamethasone on IL-8 production are calculated using the computer program Prism 4.0 (GraphPad Software Inc., San Diego, Calif.) as a marker for steroid sensitivity.
(§2) Effects of compounds on LPS-induced IL-8 and TNFα release in PMA-differentiated U937 cells. PMA-differentiated macrophage-like cells are pretreated with compounds described herein for 1 hr, followed by LPS (100 ng/ml) stimulation for 4 hrs. LPS-induced IL-8 and TNFα release is evaluated by ELISA. Values represent means of three experiments±SEM.

TNFα = assay: LPS-induced TNFα release in PMA-differentiated U937 cells (ELISA); format: cell-based, human; conditions: for TNFα inhibition (%): test concentration not given
Method: as §1, §2

Akt = assay: H2O2-induced phosphorylation of Akt in PMA-differentiated U937 cells (western blot); format: cell-based, human; conditions: PMA-differentiated U937; H2O2 1 mM 30 min
Method: Cell Lysis and Western Blotting. Whole cell protein extracts are prepared using modified RIPA buffer (50 mM Tris HCL pH 7.4, 0.5% NP-40, 0.25% Na-deoxycholate, 150 mM NaCl with freshly added complete protease (Roche). Phosphatase inhibitor (Active Motif) is also added when required. Protein concentration is determined using the Bio-Rad Protein Assay (Bio-Rad). Proteins are separated by SDS-PAGE under denaturing conditions, and electrotransferred to a nitrocellulose membrane (Amersham Biosciences, Amersham, U.K.) (Western blotting). The membranes are blocked in TBS containing 0.05% Tween 20 and 5% non-fat dried milk, and then incubated with anti-pAkt or Akt antibody followed by an horse radish peroxidase-conjugated secondary antibody (Dako UK Ltd., Ely, UK). Bound antibodies are visualized by ECL Plus (GE Healthcare UK Ltd., Little Chalfont, UK). The band density is calculated by densitometry (UVP Bioimaging Systems, Cambridge, UK) using Labworks software (Ultra-Violet Products, Cambridge, UK).
Effects of compounds on H2O2-induced phosphorylation of Akt in PMA-differentiated U937 cells. PMA-differentiated macrophage-like cells are pretreated with compounds described herein for 20 min. After H2O2 (1 mM) stimulation for 30 min, cells are lysed. Phosphorylation levels of Akt are measured by western blot. Data are calculated relative to total protein, and expressed as fold changes against positive control treated with H2O2 only. Values represent means of three or four experiments±SEM.

MMP9 = assay: PMA-induced MMP9 expression in U937 cells (gelatin zymography); format: cell-based, human; conditions: for MMP9 inhibition (%): test concentration not given, bracketed second value not explained
Method: Zymography. MMP9 enzyme activity is measured by gelatin zymography. 5 μl of supernatants were diluted with 5 μl Laemli sample buffer (Bio-Rad) and are loaded on a Novex® 10% Zymogram (Gelatin) gel (Invitrogen). After electrophoresis (90 min, 125 V, 35 mA, 5 W) gels are incubated with 1× Novex® zymogram renaturing buffer (Invitrogen) for 30 min at room temperature with gentle agitation. Gels are then rinsed in 1× Novex® zymogram developing buffer (Invitrogen) for 30 min at room temperature with gentle agitation prior to overnight incubation in the developing buffer at 37° C. After incubation the gels are stained using the colloidal blue staining kit (Invitrogen) with buffer containing 20% methanol and 70% distilled water to visualize the zymogen bands. Relevant band intensities are quantified by densitometric analysis using the UVP GelDoc-It system.
Effects of compounds on PMA-induced MMP9 expression in U937 cells. U937 cells are pretreated with compounds described herein for 1 hr, followed by PMA (50 ng/ml) treatment for 48 hrs. After 48 hrs supernatants are collected for zymography. MMP9 enzyme activity is measured by gelatin zymography. Data are expressed as fold changes against positive control treated with PMA only. Values represent means of three experiments±SEM.

HDAC activity = assay: H2O2-induced reduction of HDAC activity in PMA-differentiated U937 cells; format: cell-based, human; conditions: for restoration of H2O2-reduced HDAC activity (%): test concentration not given, bracketed second value not explained
Method: In cell HDAC assay. Cells are incubated with Fluor de Lys™ substrate for 1 hr before lyses. Total HDAC activity from whole cell extracts is measured using the HDAC Fluorimetric Assay/Drug Discovery Kit (BIOMOL® International, Inc., Plymouth Meeting, Pa.).
HDAC expression: In cell HDAC activity assay: U937 is differentiated to macrophage type cells by PMA for 3 days. HDAC fluorescent substrate (Biomol) is added before exposure of oxidative stress (H2O2, 200 μM) or Tobacco smoke conditioned medium for 4 hrs. HDAC activity is measured (Biomol kit). Compounds at different concentrations are treated 20 min before oxidative stress treatment.
PMA-differentiated macrophage-like cells are pretreated with compounds described herein for 20 min. After H2O2 (200 μM) stimulation for 4 hrs, HDAC activity is assayed. Data are expressed as fold changes against positive control treated with H2O2 only. Values represent means of four experiments±SEM.

U937 cells = assay: H2O2-induced steroid insensitivity in U937 cells (dexamethasone IC50 on TNFα-induced IL-8); format: cell-based, human; conditions: highest concentration tested (100 μM); H2O2 200 μM
Method: as §1
Restoration of steroid sensitivity. U937 cells: U937 are treated with oxidative stress (H2O2, 200 μM or 0.15 dilution CSM (cigarette smoke conditioned medium)) and 4 hours later, stimulated with TNFα (10 ng/ml) in the presence of dexamethasone (10^−11-10^−6M). Supernatant and cells are collected 24 hrs after stimulation and IL-8 is measured by conventional ELISA. As the index of corticosteroid sensitivity, IC50 of dexamethasone is calculated. Test compounds are treated 20 min before oxidative stress treatment.
Effects of compounds on H2O2-induced steroid insensitivity in U937 cells. Cells stimulated with H2O2 (200 μM) overnight are incubated with compounds described herein for 30 min under H2O2 (200 μM) exposure. The cells are treated with dexamethasone (10^−11 to 10^−6 M) for 20 min, followed by the TNFα stimulation overnight. TNFα-induced IL-8 release is evaluated by ELISA and IC50 values for dexamethasone on IL-8 production are calculated using Prism. Data are expressed as fold changes against positive control treated with H2O2 only. Values represent means of four experiments±SEM. H2O2 exposure reduces dexamethasone sensitivity by approximately 4 fold based on calculated IC50 values of TNFα-induced IL-8 production.

S. pneumoniae 303 (ErmB) = assay: MIC; format: cell-based
S. pneumoniae ATCC 49619 = assay: MIC; format: cell-based
E. coli ATCC 25922 = assay: MIC; format: cell-based; conditions: in µg/mL
K. pneumonia 13883 = assay: MIC; format: cell-based; conditions: in µg/mL
H. influenzae ATCC 49247 = assay: MIC; format: cell-based
[2] = system: S. aureus ATCC 29213 (MSSA) MLS-S; assay: MIC; format: cell-based
S. pyogenes ATCC 19615 = assay: MIC; format: cell-based; conditions: in µg/mL
E. faecium ATCC 19434 = assay: MIC; format: cell-based
[3] = system: S. typhimurium ATCC 14028; assay: MIC; format: cell-based; conditions: in µg/mL
S. aureus MRSA 33591 = assay: MIC; format: cell-based
H. influenzae LC002 = assay: MIC; format: cell-based
S. pneumoniae 163 (MefA) = assay: MIC; format: cell-based; conditions: in µg/mL
[4] = system: S. aureus 96:11480 (MLS-I); assay: MIC; format: cell-based; parameters: unit not given beside the values
[5] = system: N. gonorrhoeae ATCC 49226; assay: MIC; format: cell-based; parameters: unit not given beside the values
P. aeruginosa ATCC 27853 = assay: MIC; format: cell-based

| Structure (SMILES) | IL-8 inhibition (%) (IL-8) | TNFα inhibition (%) (TNFα) | MMP9 inhibition (%) (MMP9) | restoration of H2O2-reduced HDAC activity (%) (HDAC activity) | MIC S. pneumoniae 303 (ErmB) (S. pneumoniae 303 (ErmB)) | MIC S. pneumoniae ATCC 49619 (S. pneumoniae ATCC 49619) | Cell Toxicity (% cell death) ([1]; test concentration not given) | MIC E. coli ATCC 25922 (E. coli ATCC 25922) | MIC K. pneumonia 13883 (K. pneumonia 13883) | MIC H. influenzae ATCC 49247 (H. influenzae ATCC 49247) | MIC S. aureus ATCC 29213 (MSSA) MLS-S [2] | MIC S. pyogenes ATCC 19615 (S. pyogenes ATCC 19615) | MIC E. faecium ATCC 19434 (E. faecium ATCC 19434) | MIC S. typhimurium ATCC 14028 [3] | MIC S. aureus MRSA 33591 (S. aureus MRSA 33591) | MIC H. influenzae LC002 (H. influenzae LC002) | MIC S. pneumoniae 163 (MefA) (S. pneumoniae 163 (MefA)) | MIC S. aureus 96:11480 (MLS-I) [4] | also measured |
| --- | --- | --- | --- | --- | --- | --- | --- | --- | --- | --- | --- | --- | --- | --- | --- | --- | --- | --- | --- |
| CC[C@H]1OC(=O)[C@H](C)[C@@H](O[C@H]2C[C@@](C)(OC)[C@@H](O)[C@H](C)O2)[C@H](C)[C@@H](O[C@@H]2O[C@H](C)C[C@H](N(C)C)[C@H]2O)[C@](C)(O)C[C@@H](C)CN(C)[C@H](C)[C@@H](O)[C@]1(C)O [AZI, azithromycin, reference compound] | 44% | 31% | 33 (25) % | 34% |  |  |  |  |  |  |  |  |  |  |  |  |  |  | anti-inflammatory action in LPS-exposed A/J mice (A/J mice exposed to LPS): have anti-inflammatory action; Cell Toxicity (% cell death) ([1]; human): −16%; inhibition of LPS-induced IL-8 release compared with Example 33 (IL-8; LPS 100 ng/ml 4 hrs): did not show any inhibition at any concentration tested; inhibition of LPS-induced TNFα release compared with Example 33 (TNFα; LPS 100 ng/ml 4 hrs): did not show any inhibition at any concentration tested; inhibition of Akt phosphorylation compared with Example 33 (Akt): only at much higher concentrations than Example 33; restoration of HDAC activity compared with Example 33 (HDAC activity; PMA-differentiated U937, H2O2 200 μM 4 hrs): only at much higher doses than Example 33; HDAC activity reached compared with untreated controls (HDAC activity; PMA-differentiated U937, H2O2 200 μM, comparators at highest doses tested): only restore HDAC activity to levels comparable to untreated controls; restoration of dexamethasone sensitivity (U937 cells): None of ERY, CLR, or AZI restored dexamethasone sensitivity |
| CCC1OC(=O)C(C)C(=O)C(C)C(OC2OC(C)CC(N(C)C)C2O)C(C)(OC)CC(C)C(=O)C(C)C2N(CCCCN)C(=O)OC12C (stereo not drawn) [Example 1] | 72% | 73% | 55 (43) % | 68 (53) % | > 64 µg/mL | ≤ 0.125 µg/mL | 6% | >64 | >64 | > 64 µg/mL | 8 µg/mL (≈ 11.7 µM) | 0.25 and 0.5 | 4 µg/mL (≈ 5.85 µM) | >64 | > 64 µg/mL | > 64 µg/mL | 0.5 and 1 | 8 | concentration at which PMA-induced MMP9 up-regulation is inhibited (MMP9; U937, pretreated 1 hr, PMA 50 ng/ml 48 hrs): ≥ 300 µM; concentration at which the H2O2-induced reduction in HDAC activity is restored (HDAC activity; PMA-differentiated U937, pretreated 20 min, H2O2 200 μM 4 hrs): ≥ 100 µM |
| CCC1OC(=O)C(C)(F)C(=O)C(C)C(OC2OC(C)CC(N(C)C)C2O)C(C)(OC)CC(C)C(=O)C(C)C2N(CCCCn3cc(Cn4nnc5ccccc54)nn3)C(=O)OC12C (stereo not drawn) [Example 22] | 76% | 48% | 38 (23) % | 22 (29) % | ≤ 0.125 µg/mL | ≤ 0.125 µg/mL | 11% | >64 | >64 | 2 µg/mL (≈ 2.26 µM) | ≤ 0.125 µg/mL |  | ≤ 0.125 µg/mL | 64 | > 64 µg/mL |  | 64 | ≤0.125 | MIC N. gonorrhoeae ATCC 49226 [5]: 0.25; MIC P. aeruginosa ATCC 27853 (P. aeruginosa ATCC 27853): > 64 µg/mL |
| CC[C@H]1OC(=O)[C@H](C)C(=O)[C@H](C)[C@@H](O[C@@H]2O[C@H](C)[C@@H](OC(C)=O)[C@H](NC(C)=O)[C@H]2OC(C)=O)[C@@](C)(OC)C[C@@H](C)C(=O)[C@H](C)[C@H]2N(CCCCn3cc(-c4ccccn4)nn3)C(=O)O[C@]12C [Example 23] | 13% | 76% | 32 (31) % | −13% | 16 µg/mL (≈ 17.3 µM) | 4 µg/mL (≈ 4.31 µM) | 9% |  | >64 | > 64 µg/mL | > 64 µg/mL | 16 | 16 µg/mL (≈ 17.3 µM) |  | > 64 µg/mL | > 64 µg/mL | 2 | >64 |  |
